Earlier results, collected in patent US7332520B2, “Fused indoles as dipeptidyl peptidase inhibitors for the treatment or prevention of diabetes” (Merck & Co., Inc., priority 2003, dated 2008).

Key:
[1] = system: hematopoiesis; details: mouse, cyclophosphamide-induced neutropenia
[2] = target: T1, DP-IV (Homo sapiens, UniProt P27487)
T1 construct: GRF is rapidly degraded in plasma to GRF[3-44]
T1 sequence (P27487 39-766 limits assumed): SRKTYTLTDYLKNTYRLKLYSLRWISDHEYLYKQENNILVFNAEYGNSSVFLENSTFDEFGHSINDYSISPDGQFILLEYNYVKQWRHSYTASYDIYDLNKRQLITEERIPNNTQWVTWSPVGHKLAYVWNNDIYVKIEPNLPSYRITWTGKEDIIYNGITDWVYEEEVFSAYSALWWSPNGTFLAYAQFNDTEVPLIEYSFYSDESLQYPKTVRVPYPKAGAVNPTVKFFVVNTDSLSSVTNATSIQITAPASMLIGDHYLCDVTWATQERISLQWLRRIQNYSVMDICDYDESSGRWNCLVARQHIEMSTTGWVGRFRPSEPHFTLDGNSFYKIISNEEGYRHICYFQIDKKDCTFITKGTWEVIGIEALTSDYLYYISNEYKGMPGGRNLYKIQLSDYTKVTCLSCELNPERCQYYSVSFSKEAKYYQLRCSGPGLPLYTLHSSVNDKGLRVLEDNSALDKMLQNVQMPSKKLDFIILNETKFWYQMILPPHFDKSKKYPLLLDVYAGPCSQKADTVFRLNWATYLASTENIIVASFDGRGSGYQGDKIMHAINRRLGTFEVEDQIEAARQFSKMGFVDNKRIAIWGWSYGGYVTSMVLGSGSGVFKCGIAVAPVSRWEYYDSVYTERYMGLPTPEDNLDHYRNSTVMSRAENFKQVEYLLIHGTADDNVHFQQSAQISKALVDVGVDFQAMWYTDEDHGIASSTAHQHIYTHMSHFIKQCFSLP

Structure (SMILES) | hematopoiesis [1] | degradation of GRF in plasma to GRF[3-44] [2]
CC(C)[C@H](N)C(=O)N1CCC[C@H]1B(O)O [Val-Boro-Pro] | stimulated hematopoiesis | –
CC[C@H](C)[C@H](N)C(=O)N1CCC[C@H]1C(=O)N[C@H](C(=O)O)[C@@H](C)CC [diprotin A] | – | prevented
